This passage reports IC50 and inhibition results from US8809550B2, “Androgen receptor antagonists and uses thereof” (priority 2009, dated 2014).

The test system of assay [1] is Prostate-specific Antigen (PSA) production in LNCaP cells. Kind of assay: PSA assay: inhibition of PSA production in LNCaP cells (ELISA). Particulars: Homo sapiens, 72 h, R1881 1 ng/ml, three days, seven point assay. Type of assay: cell-based. On the procedure: (§1) PSA Assay (Inhibition Test of the Compound of the Present Invention on Prostate-Specific Antigen (PSA) Production in Various Prostate Cancer Cells)
(§2) Androgen dependent LNCaP and 22RV1 cells were purchased from the American Type Culture Collection (ATCC, Manassas, Va.). These cells were grown in RPMI 1640 medium supplemented with 10% fetal bovine serum (FBS), 100 U/mL penicillin, 100 μg/mL streptomycin, and 0.25 μg/mL amphotericin B. The cells were maintained at 37° C. and 5% CO2. LNCaP cells between passage 20 and 35, and 22RV1 cells between passage 30 and 50 were used for experiments. LNCaP is a hormone sensitive cell line, while 22RV1 is a hormone refractory prostate cancer cell line, which derived from a primary prostate tumor. This cell line was isolated from a xenograft (CWR22R-2152) that was serially propagated in mice after castration-induced regression and relapse of the parental, androgen-dependent CWR xenograft. For the PSA assay, human prostate cancer cells LNCaP or 22RV1 were seeded in a 96-well plate at a concentration of 5000 cells/100 μl/well. On the following day, Methyltrienolone (R1881, AR agonist) (final concentration 1 ng/ml), test compounds or bicalutamide (Casodex®, AstraZeneca) (final concentration 0.005 to 20 μM) were added. Three days after the addition, the concentration of PSA in the supernatant of the culture solution was measured by ELISA. ELISAs for human PSA in culture medium were performed using the ultra-sensitive assay procedure and reagents in the Active™ PSA assay kit (Diagnostic Systems Laboratories Inc., Webster, Tex.). Culture medium and standards (200 μl/well) were incubated in antibody-coated plates for 2 h at room temperature on a Titer plate shaker at 500-600 rpm. Wells were then washed five times. The HRP conjugate was diluted 1:20 with assay buffer, and 100 μl was added to all wells. The plates were incubated for 30 min at room temperature on the shaker and washed as before, and 100 μl TMB (3,3′,5,5′-tetramethylbenzidine, 0.4 g/l) was added. The plates were incubated for 10 min on the shaker, and the reaction was terminated with 100 μl stop solution. The plates were read using a plate reader at 450 nm with a 650 nm reference filter. PSA levels were normalized for differences in growth of LNCaP or 22RV1 cells following various treatments as determined by the MTS assay. IC50 of PSA was calculated based on a seven point assay (concentrations of tested compound) and expressed as micromolar (uM). Results on 22RV1 cells are shown as percent inhibition at 2 micromolar (uM). ND means not determined
On the technique in general: ELISA stands for enzyme-linked immunosorbent assay.

Assay [2] relates to Prostate-specific Antigen (PSA) production in 22RV1 cells. In words: PSA assay: inhibition of PSA production in 22RV1 cells (ELISA). Particulars: Homo sapiens, 72 h, R1881 1 ng/ml, three days. In kind it is cell-based. On the procedure: as §1
as §2, with “Results on 22RV1 cells are shown as percent inhibition at 2 micromolar (uM).” left out

In general, IC50 refers to the point on the concentration scale where inhibition reaches its midpoint. A word on the inhibition: it is how much of the control response was suppressed. A lower inhibition goes with a weak effect.

Turning to `CNC(=O)c1ccc(N2C(=S)N(c3cc(F)c(C#N)cc3F)C(=O)C23CCC3)cc1F` [Example 3, 4-[7-(4-Cyano-2,5-difluoro-phenyl)-8-oxo-6-thioxo-5,7-diaza-spiro[3.4]oct-5-yl]-2-fluoro-N-methyl-benzamide], 2100 nM corresponded to half-maximal inhibition in assay [1] (IC50). This compound also gave an inhibition at 2 µM in assay [2] of 21%.

In the case of `CNC(=O)c1ccc(N2C(=S)N(c3ccc(C#N)cc3OC(F)(F)F)C(=O)C23CCC3)cc1F` [Example 4, 4-[7-(4-Cyano-2-trifluoromethoxy-phenyl)-8-oxo-6-thioxo-5,7-diaza-spiro[3.4]oct-5-yl]-2-fluoro-N-methyl-benzamide], in assay [1], the half-inhibitory concentration (IC50) amounted to 1400 nM. Same read-out and setting: the same measure for `CNC(=O)c1ccc(N2C(=S)N(c3ccc(C#N)cc3F)C(=O)C23CCC3)cc1F` [Example 5, 4-[7-(4-Cyano-2-fluoro-phenyl)-8-oxo-6-thioxo-5,7-diaza-spiro[3.4]oct-5-yl]-2-fluoro-N-methyl-benzamide]: 1400 nM; for `CNC(=O)c1ccc(N2C(=S)N(c3ccc(C#N)cc3C)C(=O)C23CCC3)cc1F` [Example 6, 4-[7-(4-Cyano-2-methyl-phenyl)-8-oxo-6-thioxo-5,7-diaza-spiro[3.4]oct-5-yl]-2-fluoro-N-methyl-benzamide]: 1500 nM; for `CNC(=O)c1ccc(N2C(=S)N(c3ccc(C#N)cc3C(F)(F)F)C(=O)C23CCC3)cc1F` [Example 7, 4-[7-(4-Cyano-2-trifluoromethyl-phenyl)-8-oxo-6-thioxo-5,7-diaza-spiro[3.4]oct-5-yl]-2-fluoro-N-methyl-benzamide]: 1500 nM. Consider `CNC(=O)c1ccc(N2C(=S)N(c3ccc(C#N)c(C#N)c3)C(=O)C23CCC3)cc1F` [Example 9, 4-[7-(3,4-Dicyano-phenyl)-8-oxo-6-thioxo-5,7-diaza-spiro[3.4]oct-5-yl]-2-fluoro-N-methyl-benzamide], for which, in assay [1], the IC50 amounted to 980 nM. The compound also had an inhibition at 2 µM in assay [2] of 64%.

`CC1(C)C(=O)N(c2ccc(C#N)c(C(F)(F)F)c2F)C(=S)N1c1ccc(S(C)(=O)=O)cc1` [Example 13, 3-Fluoro-4-[3-(4-methanesulfonyl-phenyl)-4,4-dimethyl-5-oxo-2-thioxo-imidazolidin-1-yl]-2-trifluoromethyl-benzonitrile]: in assay [1], the concentration for half-maximal inhibition (IC50) came out at 520 nM. Besides, testing at 2 µM in assay [2] gave an inhibition of 61%.

As to `CC1(C)C(=O)N(c2ccc(C#N)c(C(F)(F)F)c2F)C(=S)N1c1ccc(C#N)cc1` [Example 14, 4-(4,4-Dimethyl-5-oxo-2-thioxo-3-p-cyanophenyl-imidazolidin-1-yl)-3-fluoro-2-trifluoromethyl-benzonitrile], in assay [1], 490 nM corresponded to half-maximal inhibition (IC50). In assay [2], this compound had an inhibition at 2 µM of 71%. On the same counts, the results for `Cc1ccc(N2C(=S)N(c3ccc(C#N)c(C(F)(F)F)c3F)C(=O)C2(C)C)cn1` [Example 15, 4-[4,4-Dimethyl-3-(6-methyl-pyridin-3-yl)-5-oxo-2-thioxo-imidazolidin-1-yl]-3-fluoro-2-trifluoromethyl-benzonitrile] are 350 nM and 69%. On the same counts, the results for `CC1(C)C(=O)N(c2ccc(C#N)c(Cl)c2F)C(=S)N1c1ccc(S(C)(=O)=O)cc1` [Example 16, 2-Chloro-3-fluoro-4-[3-(4-methanesulfonyl-phenyl)-4,4-dimethyl-5-oxo-2-thioxo-imidazolidin-1-yl]-benzonitrile] are 630 nM and 70%.

The compound `Cc1ccc(N2C(=S)N(c3ccc(C#N)c(Cl)c3F)C(=O)C2(C)C)cn1` [Example 17, 2-Chloro-4-[4,4-dimethyl-3-(6-methyl-pyridin-3-yl)-5-oxo-2-thioxo-imidazolidin-1-yl]-3-fluoro-benzonitrile] displayed a 50% inhibitory concentration (IC50) in assay [1] of 310 nM. For the same compound, the inhibition at 2 µM in assay [2] turned out to be 76%.

In the case of `COc1c(C#N)ccc(N2C(=O)C(C)(C)N(c3ccc(S(C)(=O)=O)cc3)C2=S)c1F` [Example 21, 3-Fluoro-4-[3-(4-methanesulfonyl-phenyl)-4,4-dimethyl-5-oxo-2-thioxo-imidazolidin-1-yl]-2-methoxy-benzonitrile], it took 1800 nM to reach half-maximal inhibition in assay [1] (IC50). On to `CNC(=O)c1ccc(N2C(=S)N(c3ccc(C#N)c(OC)c3F)C(=O)C2(C)C)cc1F` [Example 22, 4-[3-(4-Cyano-2-fluoro-3-methoxy-phenyl)-5,5-dimethyl-4-oxo-2-thioxo-imidazolidin-1-yl]-2-fluoro-N-methyl-benzamide], for which the IC50 in assay [1] was determined as 520 nM. In addition, testing at 2 µM in assay [2] gave an inhibition of 57%. Taken in the same sequence, the figures for `Cc1ccc(N2C(=S)N(c3ccc(C#N)c(C#N)c3)C(=O)C2(C)C)cc1F` [Example 25, 4-[3-(3-Fluoro-4-methyl-phenyl)-4,4-dimethyl-5-oxo-2-thioxo-imidazolidin-1-yl]-phthalonitrile] were 290 nM and 82%.

Take `Cc1ccc(N2C(=S)N(c3ccc(C#N)c(Cl)c3F)C(=O)C2(C)C)cc1` [Example 29, 2-Chloro-4-(4,4-dimethyl-5-oxo-2-thioxo-3-p-tolyl-imidazolidin-1-yl)-3-fluoro-benzonitrile]: the IC50 in assay [1] was found to be 280 nM. Besides, in assay [2], the inhibition at 2 µM stood at 78%. Taken in the same sequence, the figures for `Cc1ccc(N2C(=S)N(c3ccc(C#N)c(Cl)c3F)C(=O)C2(C)C)cc1F` [Example 31, 2-Chloro-3-fluoro-4-[3-(3-fluoro-4-methyl-phenyl)-4,4-dimethyl-5-oxo-2-thioxo-imidazolidin-1-yl]-benzonitrile] were 420 nM and 67%.
